US4109011A, “Insecticide carbamates of N-(polychloroallyl)-amino-phenols” (priority 1975, dated 1978)
Where two headings read alike, the source gives them in different places.

Key:
Musca Domestica = experiment: Biological activity on Musca domestica, topical application to adults; type: in vivo; conditions: read-out: Percent of Mortality
Procedure: Biological Activity on Musca Domestica (Diptera)
Four day old adults were treated by topical application through a microsyringe with 1 mm^3 of an acetonic solution of the compounds shown in such concentrations that they received doses of 5γ/insect; 2γ/insect; 0.5γ/insect of active principle. The mortality percentage 24 hours after the treatment is reported in Table 8 (mortality of insects treated with 1 mm^3 of acetone = 0).

[1] = tested on: Leptinotarsa Decimlineata; experiment: Biological activity on Leptinotarsa decemlineata larvae, sprayed potato seedlings; type: in vivo
From the text: Biological Activity on Leptinotarsa Decimlineata Coleoptera
Potato seedlings cultivated in pots were infested with 4-day old larvae and sprayed with an aqueous dispersion of the compounds according to this invention and Aminocarb as a comparison at doses of […]; respectively. The mortality percentage of the control, untreated seedlings, was zero.
(§1) To show the variation in activity from one compound to another, depending on the species used, the activities of compounds according to this invention were investigated at different concentrations, expressed as percent of active principle, on various infesting species. The mortality percentage was computed in the same way as in the preceding examples.

Tetranychus Urticae = experiment: Biological activity on Tetranychus urticae eggs, bean leaf discs; type: in vivo
From the text: Biological Activity on Tetranychus Urticae (Acari)
Small discs of bean leaves were infested with acarus eggs and successively treated by spraying with an aqueous dispersion of a compound of this invention and Aminocarb as a comparison, at concentrations of 0.1 and 0.01%. The mortality percentage of the control, untreated discs, was zero.
as §1

[2] = tested on: Leptinotarsa Decimlineata; experiment: Biological activity on Leptinotarsa decemlineata larvae, sprayed potato seedlings; type: in vivo; conditions: read-out: Percent of Mortality
Culex Pipiens = experiment: Biological activity on Culex pipiens (mosquito larvae in aqueous dispersion); type: in vivo
From the text: Biological Activity on Culex Pipiens (Diptera)
Mosquito larvae of the third and fourth ages were introduced into glass pots containing an aqueous dispersion of the compounds shown at 2 ppm and 0.2 ppm.
as §1

[3] = Acute toxicity on white rats, administered orally; conditions: rat, in vivo, po
Meloidogyne Incognita = experiment: Biological activity on Meloidogyne incognita (nematocide activity, galls on tomato seedlings); type: in vivo; conditions: vs control
Procedure: Biological Activity on Meloidogyne Incognita (Nematoda)
A 1:1 mixture of field earth and sand infested by new-born larvae and eggs of the nematode was treated by uniformly mixing with a hydroacetone dispersion (20% by vol. of acetone) at a concentration of 0.1% and of 0.02% of the compounds under test so as to get soil samples containing 100 ppm and 20 ppm, respectively, of active principle. The soil was introduced into plastic pots and after 5 days, 5 tomato seedlings about 15 cm high were transplanted into each of them. Fourteen days after transplantation, the roots of the seedlings extracted from the soil were examined in order to determine the degree of infestation by counting the galls which had formed.
The nematocide activity is expressed in Table 13 as the percentage of infestation reduction with respect to the control (seedlings transplanted into the same soil treated with a dispersion free from active principle).

Macrosiphum Euphorbiae = experiment: Biological activity on Macrosiphum euphorbiae (aphides), potato seedlings sprayed with aqueous dispersion; type: in vivo
Procedure: Biological Activity on Macrosiphum Euphorbiae (Aphides)
Potato seedlings, cultivated in pots, were infested with adult aphide females and, after a few hours, were sprayed with an aqueous dispersion of the compounds listed in Table 6. The mortality percentage was determined 24 hours after the treatment (on control non-treated seedlings, the mortality percentage was 0).
as §1

Pieris Brassicae [4] = experiment: Biological activity on Pieris brassicae larvae, sprayed cut cauliflower leaves; type: in vivo
From the text: Biological Activity on Pieris Brassicae (Lepidoptera)
Cut leaves of cauliflower were sprayed with an aqueous dispersion of compound according to this invention at a 0.1% concentration. After drying, they were infested with 5-day old larvae. The mortality percentage of the control, untreated leaves, was zero.
as §1

[5] = tested on: Leptinotarsa decemlineata; experiment: Persistence of insecticidal activity in the field, Leptinotarsa decemlineata on potato plants; type: in vivo; conditions: 0.2 percent
From the text: The persistence of insecticidal activity in the field using the insect Leptinotarsa decemlineata was examined as follows:
Potato plants grown in the field under natural conditions were sprinkled with an aqueous suspension of compound M 7361 which is according to this invention and identified hereinabove. For purposes of comparison, similarly grown potato plants were sprinkled with an aqueous suspension of the compounds M 7488 and M 7481, respectively, both according to U.S. Pat. No. 3,819,678 and identified above.
After the time periods shown in Table 17, leaves of the sprinkled plants were picked and brought to the laboratory where they were infested with 10 day-old larvae of Leptinotarsa decemlineata and then kept under observation. After 48 hours, the percent of mortality of the insects was determined. The mortality percent of the control unsprinkled leaves was zero.

Spodoptera Littoralis [6] = experiment: Persistence of insecticidal activity in the field, Spodoptera littoralis on Ricinus plants; type: in vivo; conditions: one percent, read-out: Mortality Percent of Spodoptera Littoralis Larvae
From the text: The persistence of insecticidal activity in the field using the insect Spodoptera littoralis was examined as follows:
Ricinus plants grown in the field under natural conditions were sprinkled with an aqueous suspension of the insecticidal compounds according to this invention designated hereinabove as M 7361 and M 8157. For purposes of comparison, an aqueous suspension of each of M 7481 and M 7488, according to U.S. Pat. No. 3,819,678 and identified above, was sprinkled on similarly grown Ricinus plants.
After the time periods shown in Table 16, leaves of the sprinkled plants were picked and brought to the laboratory where they were infested with 10-day old larvae of Spodoptera littoralis and then kept under observation. The mortality percent of the control unsprinkled leaves was zero.

Pieris Brassicae [7] = experiment: Persistence of insecticidal activity in the field, Pieris brassicae on cauliflower plants; type: in vivo; conditions: 0.5 percent; for mortality at 0.5 %: read-out: Mortality Percent of Pieris Brassicae Larvae
From the text: The persistence of insecticidal activity in the field using the insect Pieris brassicae was examined as follows:
Cauliflower plants grown under natural conditions in the field were sprinkled with an aqueous suspension of compounds according to this invention identified hereinabove as M 7361 and M 8157. For purposes of comparison, cauliflower plants were sprinkled with an aqueous suspension of a compound according to U.S. Pat. No. 3,819,678, identified hereinabove as M 7481.
After the respective time periods shown in Table 15, leaves of the sprinkled plants were picked and brought to the laboratory where they were infested with 10-day old larvae of Pieris brassicae and then kept under observation. The percent of mortality of the insects was determined 48 hours after infestation in all cases. The percent mortality of the control, unsprinkled cauliflower leaves, was zero.

Spodoptera Littoralis [8] = experiment: Biological activity on Spodoptera littoralis larvae, sprayed cut tobacco leaves; type: in vivo; conditions: 48 h, read-out: % mort. Spodopt. Littoralis
From the text: Biological Activity on Spodoptera Littoralis (Lepidoptera)
Cut tobacco leaves were sprayed with a 0.1% aqueous dispersion of compounds according to the present invention, shown in Table 12. After drying, the leaves were infested with 5-day old lepidopter larvae. The mortality percentage of the control was zero.
as §1

[9] = 24 h, read-out: Percent of Mortality
[10] = 0.1 percent, larvae, read-out: Percent of Mortality
[11] = 24 h, read-out: Mortality Percent
[12] = read-out: % mort. Leptinot. Decemlin.
[13] = 264 h, 11 days after field treatment
[14] = 432 h, 18 days after field treatment
[15] = 600 h, 25 days after field treatment
[16] = 120 h, 5 days after field treatment
[17] = 336 h, 14 days after field treatment
[18] = read-out: % mort. Macrosiphum Euphorbiae

CNC(=O)Oc1ccc(N(C)C)c(C)c1 [Aminocarb, reference compound]
mortality at 0.5 µg/insect (Musca Domestica; 0.5 γ per insect, 24 hours): 0%
mortality at 2 µg/insect (Musca Domestica; 2 γ per insect, 24 hours): 50%
mortality at 5 µg/insect (Musca Domestica; 5 γ per insect, 24 hours): 85%
mortality at 0.1 % ([1]; 0.1% concentr., larvae, read-out: Percent of Mortality): 100%
mortality at 0.01 % (Tetranychus Urticae; foliar, 0.01%, eggs, read-out: Percent of Mortality): 0%
mortality at 0.1 % (Tetranychus Urticae; foliar, 0.1%, eggs, read-out: Percent of Mortality): 40%
mortality at 0.01 % ([2]; 0.01% concentr., larvae): 45%
mortality at 0.2 ppm (Culex Pipiens; 0.2 ppm, 24 hours, read-out: Percent of Mortality): 0%
mortality at 2 ppm (Culex Pipiens; 2 ppm, 24 hours, read-out: Percent of Mortality): 25%
LD50 [3]: 30 mg/kg
Reduction of Infestation (Meloidogyne Incognita; 20 ppm in soil): 0%
Reduction of Infestation (Meloidogyne Incognita; 100 ppm in soil): 95%
mortality at 0.01 % (Macrosiphum Euphorbiae; 0.01 percent dispersion, 24 hours, read-out: Mortality Percent): 46%

CNC(=O)Oc1ccc(C)c(NCC(Cl)=C(Cl)Cl)c1 [M 6738]
mortality at 2 µg/insect (Musca Domestica; 24 h): 100%
mortality at 5 µg/insect (Musca Domestica; 24 h): 100%
mortality at 0.1 % ([1]; read-out: Percent of Mortality): 100%
mortality at 0.01 % [2]: 100%
mortality at 2 ppm (Culex Pipiens; [9]): 100%
LD50 [3]: 100 mg/kg

CNC(=O)Oc1cccc(NCC=C(Cl)Cl)c1 [M 6370]
mortality at 0.1 % ([1]; read-out: Percent of Mortality): 100%
mortality at 0.01 % [2]: 100%
mortality at 0.2 ppm (Culex Pipiens; [9]): 17%
mortality at 2 ppm (Culex Pipiens; [9]): 94%
LD50 [3]: 100 mg/kg
Reduction of Infestation (Meloidogyne Incognita; 20 ppm in soil): 100%
Reduction of Infestation (Meloidogyne Incognita; 100 ppm in soil): 100%
mortality at 0.1 % (Pieris Brassicae [4]; [10]): 90%
mortality at 0.01 % (Macrosiphum Euphorbiae; [11]): 100%

CNC(=O)Oc1cc(C)c(NCC=C(Cl)Cl)c(C)c1 [M 7361]
mortality at 0.01 % [1, 12]: 52%
mortality at 0.1 % [1, 12]: 97%
mortality at 1 % [1, 12]: 100%
mortality at 0.2 % ([5]; 2 hours after field treatment): 100%
mortality at 0.2 % ([5]; 96 h, 4 days after field treatment): 100%
mortality at 0.2 % ([5]; 168 h, 7 days after field treatment): 100%
mortality at 0.2 % [5, 13]: 100%
mortality at 0.2 % [5, 14]: 100%
mortality at 0.2 % [5, 15]: 73%
mortality at 1 % (Tetranychus Urticae; topical, read-out: % mort. Tetran. Urt. eggs): 13%
mortality at 1 % (Spodoptera Littoralis [6]; [16]): 100%
mortality at 1 % (Spodoptera Littoralis [6]; [13]): 100%
mortality at 1 % (Spodoptera Littoralis [6]; [17]): 100%
mortality at 1 % (Spodoptera Littoralis [6]; [14]): 100%
mortality at 1 % (Spodoptera Littoralis [6]; [15]): 100%
mortality at 1 % (Spodoptera Littoralis [6]; 2 hours after field treatment): 100%
period for which insecticidal activity is fully retained in the field (Pieris Brassicae [7]): at least 22 days
mortality at 0.5 % (Pieris Brassicae [7]; 2 hours after field treatment): 100%
mortality at 0.5 % (Pieris Brassicae [7]; [16]): 100%
mortality at 0.5 % (Pieris Brassicae [7]; 216 h, 9 days after field treatment): 100%
mortality at 0.5 % (Pieris Brassicae [7]; [17]): 100%
mortality at 0.5 % (Pieris Brassicae [7]; 408 h, 17 days after field treatment): 100%
mortality at 0.5 % (Pieris Brassicae [7]; 528 h, 22 days after field treatment): 100%
mortality at 2 ppm (Culex Pipiens; read-out: % mort. Culex Pipiens): 40%
mortality at 0.01 % (Pieris Brassicae [4]; Table 14, 0.01% a.p., read-out: % mort. Pieris Brassicae): 15%
mortality at 0.1 % (Pieris Brassicae [4]; Table 14, 0.1% a.p., read-out: % mort. Pieris Brassicae): 97%
mortality at 1 % (Pieris Brassicae [4]; Table 14, 1% a.p., read-out: % mort. Pieris Brassicae): 100%
mortality at 0.01 % (Spodoptera Littoralis [8]; Table 14, 0.01% a.p.): 7%
mortality at 0.1 % (Spodoptera Littoralis [8]; Table 14, 0.1% a.p.): 72%
mortality at 1 % (Spodoptera Littoralis [8]; Table 14, 1% a.p.): 100%
mortality at 0.01 % (Macrosiphum Euphorbiae; [18]): 17%
mortality at 0.1 % (Macrosiphum Euphorbiae; [18]): 81%
mortality at 1 % (Macrosiphum Euphorbiae; [18]): 100%

CNC(=O)Oc1ccc(C)c(NCC=C(Cl)Cl)c1 [M 6430, N-methylcarbamate of 4-methyl-3-(3,3-dichloroallylamino)-phenol]
mortality at 0.5 µg/insect (Musca Domestica; 24 h): 100%
mortality at 2 µg/insect (Musca Domestica; 24 h): 100%
mortality at 5 µg/insect (Musca Domestica; 24 h): 100%
mortality at 0.1 % ([1]; read-out: Percent of Mortality): 100%
mortality at 0.01 % [2]: 100%
mortality at 0.2 ppm (Culex Pipiens; [9]): 80%
mortality at 2 ppm (Culex Pipiens; [9]): 100%
LD50 [3]: 100 mg/kg
Reduction of Infestation (Meloidogyne Incognita; 20 ppm in soil): 88%
Reduction of Infestation (Meloidogyne Incognita; 100 ppm in soil): 100%
mortality at 0.1 % (Pieris Brassicae [4]; [10]): 100%
mortality at 0.01 % (Macrosiphum Euphorbiae; [11]): 84%
